Test results reported in PMC5550883, “Binding of doxorubicin to Sorcin impairs cell death and increases drug resistance in cancer cells” (Cell Death & Disease, 2017).

Experiments:
[1] = biological target: T1, Sorcin calcium-binding domain (SCBD) (Homo sapiens, UniProt P30626); assay: intrinsic tryptophan/tyrosine fluorescence quenching titration (ex […] nm), two-site fit; settings: Tris-HCl 10 mM pH 7.5, 0.5 uM EDTA, 25 C; stronger of two sites; unreliable (KD1 below protein concentration, large errors)
T1 construct: gene SRI; dimer
T1 sequence (P30626 32-198): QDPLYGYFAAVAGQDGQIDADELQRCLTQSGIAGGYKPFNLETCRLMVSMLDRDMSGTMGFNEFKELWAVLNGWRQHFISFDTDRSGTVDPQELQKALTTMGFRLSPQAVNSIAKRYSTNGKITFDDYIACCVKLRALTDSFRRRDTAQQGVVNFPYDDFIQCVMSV

[2] = biological target: T2, Sorcin (Homo sapiens, UniProt P30626); assay: SPR (OneStep), immobilized Sorcin; format: binding; settings: HEPES 20 mM pH 7.4, NaCl 150 mM, 2% DMSO, 25 C; CaCl2 or EDTA not told
T2 construct: gene SRI; full-length wild type; immobilized by amine coupling for SPR; homodimer
T2 sequence (P30626 1-198): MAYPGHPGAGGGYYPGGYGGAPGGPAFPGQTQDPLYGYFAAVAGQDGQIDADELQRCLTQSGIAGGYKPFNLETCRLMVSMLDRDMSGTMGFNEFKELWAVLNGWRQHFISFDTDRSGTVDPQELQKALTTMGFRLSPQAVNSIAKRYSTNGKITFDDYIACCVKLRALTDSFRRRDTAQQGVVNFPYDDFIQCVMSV

[3] = biological target: T2, Sorcin; assay: SPR, immobilized Sorcin, one-site fit; format: binding

Row | Structure (SMILES) | Kd [2] | other results
1 | COc1cccc2c1C(=O)c1c(O)c3c(c(O)c1C2=O)C[C@@](O)(C(=O)CO)C[C@@H]3O[C@H]1C[C@H](N)[C@H](O)[C@H](C)O1 [doxorubicin] |  | affinity constant [1]: 1.4 ± 1 nM
2 | CC(=O)O[C@H]1C(=O)[C@@]2(C)[C@H]([C@H](OC(=O)c3ccccc3)[C@]3(O)C[C@H](OC(=O)[C@H](O)[C@@H](NC(=O)c4ccccc4)c4ccccc4)C(C)=C1C3(C)C)[C@]1(OC(C)=O)CO[C@@H]1C[C@@H]2O [paclitaxel] | Sorcin is able to bind doxorubicin, paclitaxel and vinblastine, with high affinity | 
3 | CC[C@]1(O)C[C@@H]2CN(CCc3c([nH]c4ccccc34)[C@@](C(=O)OC)(c3cc4c(cc3OC)N(C)[C@H]3[C@@](O)(C(=O)OC)[C@H](OC(C)=O)[C@]5(CC)C=CCN6CC[C@]43[C@@H]65)C2)C1 [vinblastine] | Sorcin is able to bind doxorubicin, paclitaxel and vinblastine, with high affinity | 
4 | [NH2][Pt]([NH2])([Cl])[Cl] [cisplatin] |  | Kd [3]: 1700 nM
